Holding throughout (test): growth of human tumour cells (NCI), 48 h
The test system of experiment [1] is K562.
Experiment [2] has as its system HOP-62.
The subject of experiment [3] is OVCAR-5.
Experiment [4] concerns CAKI-1.
The subject of experiment [5] is SF-268.
Experiment [6] has as its system SK-MEL-2.
The subject of experiment [7] is A498.
For experiment [8], the system named is SW-620.
The test system of experiment [9] is HCT-116.
Experiment [10] has as its system Malme-3M.
Experiment [11] relates to RPMI-8226.
Experiment [12] relates to NCI-H226.
Experiment [13] concerns IGROV-1.
For experiment [14], the system named is HCT-15.
Experiment [15] has as its system UO-31.
The subject of experiment [16] is HL-60.
Experiment [17] relates to SK-MEL-28.
In experiment [18] the test system is LOX IMVI.
The test system of experiment [19] is UACC-62.

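Each compound was tested at five concentrations against cells in 96-well plates for 48 hours. GI50: concentration for 50% inhibition of growth.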 Active and inactive are the calls of the source. Rule as the data show it: active = GI50 up to about 1.1 µM and inactive = higher. Non-standard residues stand in square brackets, D forms with d. Residues, ends and D or L forms follow the SMILES beside them. ξ: configuration not given here. *: point of attachment. ξHyp = O=C(O)C1CC(O)CN1; Cbz = O=C(OCc1ccccc1)*

As for `CCc1cc2c(cc1CCCC(=O)O)CC1(Cc3ccc(C(=O)O)cc3C1)C2` (stereo unspecified), the GI50 in [1], in experiment [2], in experiment [3], in experiment [4], in [5] and in [6] was > 100 µM (inactive) each time. For the same compound, the GI50 in experiment [7], in experiment [8], in experiment [9], in experiment [10], in experiment [11] and in [12] was > 100 µM (inactive) throughout. In addition, the GI50 in experiment [13] is > 100 µM (inactive); in experiment [14], > 100 µM; in experiment [15], > 100 µM (inactive); in experiment [16] it was > 100 µM (inactive); in experiment [17], > 100 µM (inactive); in [18] it was > 100 µM (inactive).

Turning to `CCCC[C@H]1[C@@H](OCOc2ccccc2)COC(=O)N1[C@H](C)c1ccccc1`, the GI50 was 7.18 µM (inactive) in experiment [1]; 13.8 µM (inactive) in experiment [2]; 17.3 µM (inactive) in [3]; 13.5 µM (inactive) in experiment [4]; 16.6 µM (inactive) in experiment [5]; 15.1 µM (inactive) in experiment [6]. Further, the GI50 in experiment [7] was 12.9 µM (inactive); in experiment [8], 32.1 µM (inactive); in experiment [9], 7.62 µM (inactive); in [10], 15.7 µM (inactive); in experiment [11], 6.76 µM (inactive); in experiment [12], > 100 µM (inactive). Moreover, the GI50 in [19] was 10.3 µM (inactive); in experiment [13], 14.7 µM (inactive); in experiment [14] it was 15.9 µM; in experiment [15], 11.8 µM (inactive); in experiment [16] it was 18 µM (inactive); in experiment [17] it was 21.6 µM (inactive). In experiment [18], the GI50 is 20.8 µM (inactive).

On to `Cc1cccc(N2C(=O)C3c4[nH]c5ccc(C)cc5c4C4CCC(C(C)(C)C)CC4C3C2=O)c1` (stereo unspecified), for which the GI50 was 23.9 µM (inactive) in experiment [1]; 15.8 µM (inactive) in [2]; 32.7 µM (inactive) in experiment [3]; 31.6 µM (inactive) in experiment [4]; 15.5 µM (inactive) in experiment [5]; 38.1 µM (inactive) in experiment [6]. Further, the GI50 in experiment [8] was 21 µM (inactive); in experiment [10], 24.3 µM (inactive); in experiment [11], 15.5 µM (inactive); in [12], 17.1 µM (inactive); in [19], 23.3 µM (inactive); in [13], 26.5 µM (inactive). In addition, the GI50 was 53.7 µM in [14]; 43.4 µM (inactive) in experiment [15]; 17.7 µM (inactive) in [16]; 42.6 µM (inactive) in [17]; 17.2 µM (inactive) in [18].

With `N#CCCC1(CCC#N)CCCCCCC(CCC#N)(CCC#N)C(O)C1O` (stereo unspecified), the GI50 in [1], in [2], in [3], in [4], in experiment [5] and in [6] was > 100 µM (inactive) throughout. In addition, the GI50 is > 100 µM (inactive) in experiment [7]; > 100 µM (inactive) in experiment [8]; > 100 µM (inactive) in experiment [9]; > 100 µM (inactive) in experiment [10]; 53.8 µM (inactive) in [12]; > 100 µM (inactive) in experiment [13]. Also, the GI50 is > 100 µM in experiment [14], > 100 µM (inactive) in experiment [15], > 100 µM (inactive) in experiment [17] and > 100 µM (inactive) in experiment [18].

As for `COc1cc(C(C)O)c(S(=O)(=O)CC(C)O)nn1` (stereo unspecified), the GI50 is 72.9 µM (inactive) in experiment [1]; > 100 µM (inactive) in experiment [3]; > 100 µM (inactive) in experiment [4]; > 100 µM (inactive) in experiment [7]; > 100 µM (inactive) in experiment [8]; > 100 µM (inactive) in experiment [9]. In addition, the GI50 was > 100 µM (inactive) in experiment [10]; 43.9 µM (inactive) in [11]; 64.1 µM (inactive) in experiment [12]; > 100 µM (inactive) in [19]; > 100 µM (inactive) in [13]; > 100 µM in [14]. Besides, the GI50 in experiment [15], in experiment [16], in [17] and in [18] was > 100 µM (inactive) each time.

For the compound `CC1=NN(C(=O)c2cc(Cl)cc([N+](=O)[O-])c2)C(=O)C1/N=N/c1ccccc1C(=O)O` (stereo unspecified), the GI50 in experiment [1], in experiment [3], in experiment [4], in experiment [5], in experiment [6] and in experiment [7] was > 100 µM (inactive) each time. The GI50 in experiment [8] was > 100 µM (inactive); in [9], > 100 µM (inactive); in experiment [10], > 100 µM (inactive); in [11], > 100 µM (inactive); in experiment [12], > 100 µM (inactive); in experiment [19], 69.5 µM (inactive). Further, the GI50 in [13], in [15], in [16] and in [17] was > 100 µM (inactive) in each case.

With `NC(=O)CNC(=O)C1CC(O)CN1C(=O)OCc1ccccc1` (stereo unspecified) (Cbz-[ξHyp]-Gly-NH2), the GI50 in experiment [1] was > 100 µM (inactive); in [2] it was > 100 µM (inactive); in experiment [3], > 100 µM (inactive); in experiment [5] it was 74.6 µM (inactive); in experiment [6], > 100 µM (inactive); in experiment [7], > 100 µM (inactive). Further, the GI50 in experiment [8], in [9], in experiment [10], in experiment [11], in [12] and in experiment [19] was > 100 µM (inactive) throughout. Further, the GI50 in [13] was > 100 µM (inactive); in experiment [14] it was > 100 µM; in experiment [15], > 100 µM (inactive); in experiment [16], > 100 µM (inactive); in [17], > 100 µM (inactive); in experiment [18] it was > 100 µM (inactive).

In the case of `CCOC(=O)C(O)(NC(=O)c1ccc(F)cc1)C(F)(F)F` (stereo unspecified), the GI50 in experiment [1], in experiment [2], in [3], in experiment [4], in experiment [5] and in [6] was > 100 µM (inactive) in each case. Further, the GI50 in experiment [8], in experiment [9], in experiment [10], in [11], in experiment [12] and in experiment [19] was > 100 µM (inactive) throughout. In addition, the GI50 was 57 µM (inactive) in [13]; > 100 µM in [14]; > 100 µM (inactive) in [15]; > 100 µM (inactive) in experiment [16]; > 100 µM (inactive) in experiment [17]; > 100 µM (inactive) in experiment [18].

Turning to `C/N=C1\S/C(=N\c2ccc(N(C)C)cc2)N1C`, the GI50 is 29.7 µM (inactive) in [1]; > 100 µM (inactive) in experiment [2]; 75.5 µM (inactive) in [3]; 24.9 µM (inactive) in experiment [5]; 33.9 µM (inactive) in [6]; 23 µM (inactive) in [7]. The GI50 was 38.1 µM (inactive) in [8]; 32.7 µM (inactive) in experiment [9]; 39.9 µM (inactive) in experiment [10]; 34.5 µM (inactive) in [11]; 52.1 µM (inactive) in experiment [12]; 33.5 µM (inactive) in experiment [19]. Also, the GI50 in [13] was 51.8 µM (inactive); in experiment [14] it was 30.5 µM; in experiment [15], 31.6 µM (inactive); in [16], 34.4 µM (inactive); in experiment [17], 38.8 µM (inactive); in [18], 46 µM (inactive).

As to `O=C(c1ccccn1)C1(N2CCCCC2)CCCCC1`, the GI50 is > 100 µM (inactive) in experiment [1]; > 100 µM (inactive) in [2]; > 100 µM (inactive) in experiment [3]; > 100 µM (inactive) in experiment [4]; 17.5 µM (inactive) in [5]; > 100 µM (inactive) in experiment [6]. Moreover, the GI50 in [7] was > 100 µM (inactive); in experiment [8], > 100 µM (inactive); in [9], > 100 µM (inactive); in experiment [11] it was 50.2 µM (inactive); in [12] it was > 100 µM (inactive); in experiment [19], > 100 µM (inactive). In addition, the GI50 in experiment [13] is 87.7 µM (inactive); in experiment [14], > 100 µM; in [15], > 100 µM (inactive); in [16] it was 88.3 µM (inactive); in [17] it was > 100 µM (inactive); in [18] it was > 100 µM (inactive).

With `C[n+]1c2ccccc2c(C(=O)NC(CCCNC(=N)N)C(=O)O)c2ccccc21` (stereo unspecified), the GI50 in [1], in experiment [2], in experiment [3], in experiment [5], in experiment [6] and in experiment [7] was > 100 µM (inactive) in each case. Besides, the GI50 in experiment [8], in [9], in experiment [10], in experiment [11], in experiment [19] and in experiment [13] was > 100 µM (inactive) each time. Further, the GI50 is > 100 µM in experiment [14], > 100 µM (inactive) in experiment [15], > 100 µM (inactive) in [17] and > 100 µM (inactive) in [18].

Regarding `CC1=C[C@]2(CC(C)C3C(CC4(C)C5CCC6C(C)(C)C(=O)CC[C@@]67C[C@@]57CC[C@]34C)O2)OC1=O` (stereo partly specified), the GI50 in [1] is 4.03 µM (inactive); in experiment [3], 2.21 µM (inactive); in [4], 16.9 µM (inactive); in [5], 33.9 µM (inactive); in [6] it was 34.4 µM (inactive); in [7], 23.7 µM (inactive). The GI50 in experiment [8] was 12.6 µM (inactive); in [9], 3.33 µM (inactive); in [10] it was 44.4 µM (inactive); in experiment [11] it was 9.2 µM (inactive); in [12], 1.88 µM (inactive); in experiment [13], 6.32 µM (inactive). Moreover, the GI50 in experiment [14] is 7.64 µM; in experiment [16] it was 0.968 µM (active); in [17] it was 18.6 µM (inactive); in experiment [18], 3.46 µM (inactive).

Values taken from ChEMBL document CHEMBL1201862, “PubChem BioAssay data set” (2004).
